Here are results for twelve molecules from ChEMBL document CHEMBL3286145, “Evaluation of the antiprion activity of 6-aminophenanthridines and related heterocycles” (Eur J Med Chem, 2014).

The nature of the test: Ex vivo antiprion activity against sheep 127S scrapie prion protein infected in mouse MovS6 cells assessed as PK digestion resistant-PrPSc accumulation after 6 days by immunoblot analysis. The note with it: Ovis aries, MovS6, 144 h. The class given is cell-based. For orientation: In western blotting, separated proteins are transferred to a membrane and probed.

`Nc1cccc2c1c(N)nc1ccccc12`: the IC50 (usually the concentration that inhibits the measured activity by half) was 30 µM. For `[N-]=[N+]=Nc1ccc2c(c1)c(N)nc1ccccc12` the value was 10 µM; for `Nc1nc2ccccc2c2cc([N+](=O)[O-])ccc12`, below 5 µM; for `Nc1nc2ccccc2c2c1CC=CC2`, 1.8 µM. On to `Nc1nc2ccccc2c2ccc(F)cc12`, for which the IC50 was found to be 15 µM.

For `Nc1nc2ccccc2c2ccccc12`, the IC50 is below 5 µM.

As for `Nc1nc2ccccc2c2cc(F)ccc12`, the IC50 stood at 5 µM. For `Nc1nc2ccccc2c2cccc(F)c12` the value was above 20 µM. As to `Nc1nc2ccccc2c2ccc(C(F)(F)F)cc12`, the half-maximal inhibitory concentration (IC50) was found to be 10 µM. On to `Nc1nc2ccccc2c2c1CCCC2`, for which the IC50 was below 5 µM. For `COc1cc(OC)c2nc(N)c3ccccc3c2c1` the value was below 1.8 µM.

Consider `Nc1nc2ccccc2c2ccc([N+](=O)[O-])cc12`, for which the 50% inhibitory concentration (IC50) was 20 µM.
